Assay: xn = mol fraction of the nth substance listed
Conditions: Liquid, Vibrating tube method

COC(=O)OC [dimethyl carbonate] + CCO
mass density [kg/m3]
Conditions | 100 kPa | 5000 kPa | 10000 kPa | 15000 kPa | 20000 kPa | 25000 kPa | 30000 kPa | 35000 kPa | 40000 kPa
303.15 K, x1 = 0.0252 | – | – | – | – | – | – | – | 817.99 | 821.19
303.15 K, x1 = 0.0506 | – | – | – | – | – | – | – | 827.65 | 830.86
303.15 K, x1 = 0.0757 | – | – | – | – | – | – | – | 836.92 | 840.19
303.15 K, x1 = 0.1003 | – | – | – | – | – | – | – | 845.76 | 849.04
303.15 K, x1 = 0.1508 | – | – | – | – | – | – | – | 863.66 | 867.01
303.15 K, x1 = 0.2 | – | – | – | – | – | – | – | 880.45 | 883.83
303.15 K, x1 = 0.2547 | – | – | – | – | – | – | – | 898.44 | 901.89
303.15 K, x1 = 0.3002 | – | – | – | – | – | – | – | 912.97 | 916.44
303.15 K, x1 = 0.3498 | – | – | – | – | – | – | – | 928.31 | 931.85
303.15 K, x1 = 0.4 | – | – | – | – | – | – | – | 943.37 | 946.93
303.15 K, x1 = 0.449 | – | – | – | – | – | – | – | 957.5 | 961.08
303.15 K, x1 = 0.4996 | – | – | – | – | – | – | – | 971.61 | 975.21
303.15 K, x1 = 0.5507 | – | – | – | – | – | – | – | 985.38 | 989
303.15 K, x1 = 0.6005 | – | – | – | – | – | – | – | 998.28 | 1001.97
303.15 K, x1 = 0.6455 | – | – | – | – | – | – | – | 1009.61 | 1013.31
303.15 K, x1 = 0.6931 | – | – | – | – | – | – | – | 1021.1 | 1024.81
303.15 K, x1 = 0.7502 | – | – | – | – | – | – | – | 1034.38 | 1038.11
303.15 K, x1 = 0.8009 | – | – | – | – | – | – | – | 1045.74 | 1049.49
303.15 K, x1 = 0.8505 | – | – | – | – | – | – | 1052.73 | 1056.47 | 1060.22
303.15 K, x1 = 0.9008 | – | – | – | – | – | – | 1063.26 | 1067 | 1070.77
303.15 K, x1 = 0.9255 | – | – | – | – | – | – | 1068.3 | 1072.05 | 1075.83
303.15 K, x1 = 0.9477 | – | – | – | – | – | – | 1072.75 | 1076.5 | 1080.28
303.15 K, x1 = 0.9735 | – | – | – | – | – | – | 1077.83 | 1081.57 | 1085.37
303.15 K, x1 = 1 | – | – | – | – | – | – | 1082.9 | 1086.6 | 1090.4
308.15 K, x1 = 0.0252 | 785.78 | 790.2 | 794.7 | 798.95 | 803.01 | 806.85 | 810.55 | 814.13 | 817.65
308.15 K, x1 = 0.0506 | 795.01 | 799.48 | 804.03 | 808.34 | 812.45 | 816.29 | 820.04 | 823.67 | 827.2
308.15 K, x1 = 0.0757 | 804.1 | 808.57 | 813.12 | 817.43 | 821.55 | 825.44 | 829.2 | 832.83 | 836.41
308.15 K, x1 = 0.1003 | 812.76 | 817.27 | 821.84 | 826.15 | 830.31 | 834.21 | 837.98 | 841.6 | 845.19
308.15 K, x1 = 0.1508 | 830.19 | 834.75 | 839.38 | 843.74 | 847.91 | 851.87 | 855.69 | 859.36 | 862.96
308.15 K, x1 = 0.2 | 846.57 | 851.18 | 855.82 | 860.24 | 864.46 | 868.48 | 872.26 | 875.98 | 879.58
308.15 K, x1 = 0.2547 | 864.3 | 868.96 | 873.61 | 878.08 | 882.31 | 886.33 | 890.22 | 893.94 | 897.55
308.15 K, x1 = 0.3002 | 878.53 | 883.23 | 887.94 | 892.42 | 896.65 | 900.73 | 904.63 | 908.34 | 911.96
308.15 K, x1 = 0.3498 | 893.6 | 898.3 | 903.03 | 907.51 | 911.79 | 915.88 | 919.79 | 923.55 | 927.17
308.15 K, x1 = 0.4 | 908.35 | 913.1 | 917.89 | 922.37 | 926.66 | 930.75 | 934.72 | 938.43 | 942.06
308.15 K, x1 = 0.449 | 922.34 | 927.13 | 931.93 | 936.46 | 940.76 | 944.91 | 948.88 | 952.59 | 956.23
308.15 K, x1 = 0.4996 | 936.23 | 941.03 | 945.84 | 950.37 | 954.72 | 958.88 | 962.91 | 966.61 | 970.26
308.15 K, x1 = 0.5507 | 949.8 | 954.65 | 959.47 | 964 | 968.36 | 972.52 | 976.56 | 980.26 | 983.92
308.15 K, x1 = 0.6005 | 962.5 | 967.34 | 972.17 | 976.76 | 981.12 | 985.34 | 989.34 | 993.09 | 996.75
308.15 K, x1 = 0.6455 | 973.59 | 978.43 | 983.27 | 987.86 | 992.27 | 996.5 | 1000.55 | 1004.29 | 1007.96
308.15 K, x1 = 0.6931 | 984.98 | 989.86 | 994.71 | 999.31 | 1003.72 | 1007.95 | 1012.02 | 1015.76 | 1019.43
308.15 K, x1 = 0.7502 | 998.06 | 1002.99 | 1007.85 | 1012.45 | 1016.86 | 1021.1 | 1025.17 | 1028.91 | 1032.59
308.15 K, x1 = 0.8009 | 1009.32 | 1014.25 | 1019.12 | 1023.72 | 1028.14 | 1032.39 | 1036.46 | 1040.2 | 1043.88
308.15 K, x1 = 0.8505 | 1019.95 | 1024.88 | 1029.76 | 1034.36 | 1038.78 | 1043.04 | 1047.12 | 1050.86 | 1054.54
308.15 K, x1 = 0.9008 | 1030.34 | 1035.27 | 1040.16 | 1044.76 | 1049.19 | 1053.46 | 1057.58 | 1061.29 | 1064.96
308.15 K, x1 = 0.9255 | 1035.32 | 1040.27 | 1045.13 | 1049.75 | 1054.19 | 1058.45 | 1062.57 | 1066.29 | 1069.95
308.15 K, x1 = 0.9477 | 1039.72 | 1044.68 | 1049.54 | 1054.15 | 1058.61 | 1062.87 | 1066.99 | 1070.7 | 1074.34
308.15 K, x1 = 0.9735 | 1044.8 | 1049.73 | 1054.59 | 1059.21 | 1063.67 | 1067.93 | 1072.03 | 1075.71 | 1079.36
308.15 K, x1 = 1 | 1049.91 | 1054.84 | 1059.69 | 1064.3 | 1068.73 | 1073 | 1077.1 | 1080.78 | 1084.38
